In article PMC9571408, “Synthesis of Isomeric 3-Benzazecines Decorated with Endocyclic Allene Moiety and Exocyclic Conjugated Double Bond and Evaluation of Their Anticholinesterase Activity” (Molecules, 2022):
≈ marks a conversion by molar mass, not a printed value. Where “and” joins values, the source holds several entries; their conditions need not be identical. Identical values can stand only once.

Assays:
[1] = biological target: BChE from human serum (Homo sapiens, UniProt P06276); details: screened at 10 μM; n.i. = no inhibition
BChE from human serum, sequence (P06276 29-602): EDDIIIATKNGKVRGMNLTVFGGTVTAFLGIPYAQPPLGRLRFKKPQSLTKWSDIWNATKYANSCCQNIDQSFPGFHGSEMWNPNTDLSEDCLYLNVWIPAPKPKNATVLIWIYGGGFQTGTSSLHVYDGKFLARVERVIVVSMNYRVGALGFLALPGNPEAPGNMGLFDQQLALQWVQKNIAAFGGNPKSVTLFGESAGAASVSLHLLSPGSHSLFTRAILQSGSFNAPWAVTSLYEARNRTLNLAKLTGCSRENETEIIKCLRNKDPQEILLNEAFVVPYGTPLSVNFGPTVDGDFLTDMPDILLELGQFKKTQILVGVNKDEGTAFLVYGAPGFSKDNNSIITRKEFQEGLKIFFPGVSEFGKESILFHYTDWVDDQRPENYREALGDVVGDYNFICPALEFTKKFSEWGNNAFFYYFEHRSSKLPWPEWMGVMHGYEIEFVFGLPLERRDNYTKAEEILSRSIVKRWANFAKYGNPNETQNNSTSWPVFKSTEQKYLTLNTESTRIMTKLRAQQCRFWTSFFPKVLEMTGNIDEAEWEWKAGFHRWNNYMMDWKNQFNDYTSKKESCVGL
Experimental: (§1) Herein, a number of newly and previously synthesized 3-benzazecine analogs, including either allene (Figure 1, scaffold A) or 6- and 8-ylidene (B and C) derivatives, were firstly assayed as inhibitors of AChE, BChE, and MAOs at 10 μM concentration.
(§2) Inhibition of human recombinant AChE (2770 U/mg) or BChE from human serum (50 U/mg) was determined as described using the Ellman spectrophotometric method in a 96-well plate procedure. Briefly, test compounds were incubated in phosphate buffer pH 8.0 in the presence of the enzyme and 5,5′-dithiobis-(2-nitrobenzoic acid) (DTNB) as the chromophoric reagent. Incubation samples were made in 96-well, flat-bottomed transparent polystyrene plates (Greiner Bio-One, Kremsmünster, Austria), at 25 °C for 20 min, and read at 412 nm using an Infinite M1000 Pro plate reader (Tecan, Cernusco s.N., Italy). For inhibition kinetics, four concentrations of compound 3e (ranging from 0 to 15 μM), and six concentrations of acetylthiocholine (from 33 to 200 μM) were used. Inhibition data and kinetics were obtained as means ± SD from 3 independent experiments, using GraphPad Prism (version 5.00 for Windows; GraphPad Software, San Diego, CA, USA).

[2] = biological target: human recombinant AChE (Homo sapiens, UniProt P22303); details: for IC50: read-out: hAChE half-maximal inhibitory concentration, mean ± SD of three independent measurements, unit from b17 (low μM range)
human recombinant AChE, sequence (P22303 32-614): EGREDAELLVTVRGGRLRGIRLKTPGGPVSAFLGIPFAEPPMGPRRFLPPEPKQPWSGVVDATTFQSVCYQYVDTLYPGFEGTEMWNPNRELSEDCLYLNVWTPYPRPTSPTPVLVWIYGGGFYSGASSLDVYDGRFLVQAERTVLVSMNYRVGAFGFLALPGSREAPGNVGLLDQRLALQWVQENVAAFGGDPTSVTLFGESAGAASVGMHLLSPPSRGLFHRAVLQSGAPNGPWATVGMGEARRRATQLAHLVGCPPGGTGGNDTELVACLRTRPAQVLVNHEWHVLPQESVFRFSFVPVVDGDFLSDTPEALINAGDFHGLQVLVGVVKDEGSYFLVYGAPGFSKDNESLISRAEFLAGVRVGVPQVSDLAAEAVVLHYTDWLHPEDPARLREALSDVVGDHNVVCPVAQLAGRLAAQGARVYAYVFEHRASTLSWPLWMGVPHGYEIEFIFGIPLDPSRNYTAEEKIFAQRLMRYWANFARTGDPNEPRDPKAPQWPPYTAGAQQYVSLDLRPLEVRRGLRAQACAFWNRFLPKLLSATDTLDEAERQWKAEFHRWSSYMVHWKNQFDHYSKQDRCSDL
Experimental: as §1, §2

[3] = biological target: T1, human recombinant monoamine oxidase A (Homo sapiens, UniProt P21397); assay: Inhibition of MAO-A, kynuramine fluorescence assay; assay type: biochemical; details: mean ± SD
T1 construct: purchased Sigma Aldrich; host or cells: baculovirus infected insect cells (microsomes)
T1 sequence (P21397 1-527): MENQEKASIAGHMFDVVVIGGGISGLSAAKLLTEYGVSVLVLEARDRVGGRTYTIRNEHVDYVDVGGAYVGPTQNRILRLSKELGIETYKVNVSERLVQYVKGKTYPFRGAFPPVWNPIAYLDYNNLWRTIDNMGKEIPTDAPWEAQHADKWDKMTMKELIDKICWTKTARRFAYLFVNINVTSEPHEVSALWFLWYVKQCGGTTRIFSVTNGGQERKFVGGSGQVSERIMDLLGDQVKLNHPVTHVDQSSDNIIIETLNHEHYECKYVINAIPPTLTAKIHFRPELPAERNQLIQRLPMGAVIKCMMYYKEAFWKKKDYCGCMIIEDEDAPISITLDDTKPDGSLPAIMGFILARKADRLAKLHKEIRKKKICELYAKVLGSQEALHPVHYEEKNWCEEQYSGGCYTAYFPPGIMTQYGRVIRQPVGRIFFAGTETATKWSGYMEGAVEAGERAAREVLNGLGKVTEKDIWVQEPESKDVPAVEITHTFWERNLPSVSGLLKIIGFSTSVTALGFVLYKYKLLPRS
Experimental: as §1
(§3) Inhibition of human recombinant monoamine oxidases A (250 U/mg) and B (59 U/mg; microsomes from baculovirus infected insect cells; Sigma Aldrich) was determined as already described, measuring the fluorescence of 4-hydroxyquinoline produced by MAOs in the oxidative deamination of substrate kynuramine. Briefly, compounds were tested in coincubation with MAO and kynuramine in phosphate buffer 390 mOsm pH 7.4, at 37 °C for 30 min. Assays were performed in 96-well black polystyrene plates (Greiner) using the Infinite M1000 Pro plate reader (Tecan). Inhibition data were obtained as means ± SD using GraphPad Prism.

[4] = biological target: T2, human recombinant monoamine oxidase B (Homo sapiens, UniProt P27338); assay: Inhibition of MAO-B, kynuramine fluorescence assay; assay type: biochemical; details: mean ± SD
T2 construct: purchased Sigma Aldrich; host or cells: baculovirus infected insect cells (microsomes)
T2 sequence (P27338 1-520): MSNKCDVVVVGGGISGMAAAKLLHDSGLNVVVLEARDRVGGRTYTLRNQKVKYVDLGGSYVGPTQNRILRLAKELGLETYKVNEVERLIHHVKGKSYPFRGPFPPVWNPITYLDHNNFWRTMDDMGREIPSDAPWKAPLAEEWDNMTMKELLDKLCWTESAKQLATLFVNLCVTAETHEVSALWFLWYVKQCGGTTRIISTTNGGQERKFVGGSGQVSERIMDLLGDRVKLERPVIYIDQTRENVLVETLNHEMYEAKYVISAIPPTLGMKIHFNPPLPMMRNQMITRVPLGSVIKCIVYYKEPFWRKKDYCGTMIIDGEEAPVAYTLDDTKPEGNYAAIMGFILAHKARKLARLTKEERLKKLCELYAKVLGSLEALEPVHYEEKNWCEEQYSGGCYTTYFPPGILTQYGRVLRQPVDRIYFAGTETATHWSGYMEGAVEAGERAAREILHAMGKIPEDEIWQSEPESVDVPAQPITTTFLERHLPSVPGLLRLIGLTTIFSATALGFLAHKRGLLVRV
Experimental: as §1, §3

[5] = Kinetic aqueous solubility by U-HPLC
Experimental: Following shaking of the suspension in an orbital shaker at 250 rpm for 2 h, the solution was separated by centrifugation (2500 rpm, 3 min) and filtered. Equal volume of solution was transferred into 1:1 (v/v) mixture of DMSO/PBS. The concentration of compound was determined by U-HPLC and UV detector (255 nm) comparing the peak area of external standard solution. All data were means of 3 independent experiments (± SEM). […] HPLC analyses were performed on an Agilent U-HPLC 1260 Infinity Quaternary LC system (Agilent Technologies, Milan, Italy) (Table 4).

[6] = Hydrolytic stability in water-buffered solution by U-HPLC; details: PBS pH 7.4, 0.15 M KCl, 37 °C (table footnote)
Experimental: At appropriate time intervals, samples were withdrawn and analyzed by U-HPLC using a 1290 Infinity Quaternary LC system (Agilent Technologies, Milan, Italy) equipped with autosampler and photodiode array detector. A Phenomenex Kinetex C18 column 2.6 µm (150 × 2.1 mm i.d.) was used as stationary phase. […] Pseudo-first-order rate constants (kobs) for the hydrolysis of the compound were calculated from the slopes of the linear plots of log (% remaining compound) against time.

Row | SMILES | hBChE inhibition [1] | Ki ([2]; read-out: AChE inhibition, Ki, Lineweaver–Burk inhibition kinetics, acetylthiocholine substrate) | IC50 [2] [µM] | hMAO-A % inhibition at 10 μM [3] | hMAO-B % inhibition at 10 μM [4] | Water solubility relative to 3n ([5]; 3e vs 3n, buffered aqueous solution pH 7.4) [fold] | Solubility ([5]; PBS pH 7.4, 0.15 M KCl, 37 °C, kinetic solubility) [µM] | Hydrolytic half-life [6] [h]
1 | COCC1=C=C(c2ccc(OC)cc2)c2cc(OC)c(OC)cc2CCN(C)C=C1C(=O)OC [Compound 3e, Methyl 3-methyl-10,11-dimethoxy-6-methoxymethyl-8-(4-methoxyphenyl)-benzo[d]-3-aza-cyclodeca-4,6,7-triene-5-carboxylate] | n.i. | 4.9 µM and 4.89 µM | 12.2 ± 2.6 | (37 ± 5) % | (23 ± 1) % | 90 | 17.4 ± 0.7 (≈ 8.1 µg/mL) | 4.5
2 | COCC1=C=C(c2ccc(C)cc2)c2cc(OC)c(OC)cc2CCN(C)C=C1C(=O)OC [Compound 3d, Methyl 3-methyl-8-(4-methylphenyl)-10,11-dimethoxy-6-(methoxymethyl)-benzo[d]-3-aza-cyclodeca-4,6,7-triene-5-carboxylate] | n.i. | – | 19.3 ± 3.3 | (30 ± 4) % | (30 ± 5) % | – | – | –
3 | COCC1=C=C(c2ccc(C)cc2)c2cc(OC)c(OC)cc2CCN(C)C=C1C(C)=O [Compound 3i, 1-(3-Methyl-8-(4-methylphenyl)-10,11-dimethoxy-6-methoxymethyl-benzo[d]-3-aza-cyclodeca-4,6,7-trien-5-yl)ethanone] | n.i. | – | 32.5 ± 4.4 | (28 ± 1) % | (38 ± 4) % | – | – | –
4 | COCC1=C=C(c2ccc(OC)cc2)c2cc(OC)c(OC)cc2CCN(C)C=C1C(C)=O [Compound 3j, 1-(3-Methyl-10,11-dimethoxy-6-methoxymethyl-8-(4-methoxyphenyl)-benzo[d]-3-aza-cyclodeca-4,6,7-trien-5-yl)ethanone] | n.i. | – | 13.2 ± 0.7 | (29 ± 5) % | (28 ± 5) % | – | – | –
